# Where a name gives a salt, the structure may show the parent alone.
# How the values were obtained:
# [1] = target: T1, recombinant human 5-HT4 receptor (Homo sapiens, UniProt Q13639); test: Determination of EC50 values for 5-HT4 receptor (CHO cells, pCRE-Luc reporter); format: cell-based; conditions: luciferase reporter, 4 hours incubation, read-out: 5-HT4 receptor agonistic binding in-vitro EC50
# T1 construct: expressed in transfected cells
# Procedure: A stable CHO cell line expressing recombinant human 5-HT4 receptor and pCRE-Luc reporter system was used for cell-based assay. The assay offers a non-radioactive based approach to determine binding of a compound to GPCRs. In this specific assay, the level of intracellular cyclic AMP, which is modulated by activation, or inhibition of the receptor is measured. The recombinant cells harbor luciferase reporter gene under the control of cAMP response element.
# The above cells were grown in 96 well clear bottom white plates in Hams F12 medium containing 10% fetal bovine serum (FBS). Prior to the addition of compounds or standard agonist, cells were serum starved overnight. Increasing concentrations of test compounds were added in OptiMEM medium to the cells. The incubation was continued at 37° C. in CO2 incubator for 4 hours. Medium was removed and cells were washed with phosphate buffered saline. The cells were lysed and luciferase activity was measured in a Luminometer. Luminescence units were plotted against the compound concentrations using Graphpad software. EC50 values of the compounds were defined as the concentration required in stimulating the luciferase activity by 50%.
# Male Wistar rats = test: Object recognition task model; format: in vivo; conditions: rat, p.o.
# Procedure: The cognition enhancing properties of compounds of this invention were estimated by using this model.
# Male Wistar rats (230-280 grams) were used as experimental animals. Four animals were housed in each cage. Animals were kept on 20% food deprivation before one day and given water ad libitum throughout the experiment and maintained on a 12 hours light/dark cycle. Also the rats were habituated to individual arenas for 1 hour in the absence of any objects.
# One group of 12 rats received vehicle (1 mL/Kg) orally and another set of animals received compound of the formula (I) either orally or i.p., before one hour of the familiar (T1) and choice trial (T2).
# The experiment was carried out in a 50×50×50 cm open field made up of acrylic. In the familiarization phase, (T1), the rats were placed individually in the open field for 3 minutes, in which two identical objects (plastic bottles, 12.5 cm height×5.5 cm diameter) covered in yellow masking tape alone (a1 and a2) were positioned in two adjacent corners, 10 cms from the walls. After 24 hours of the (T1) trial for long-term memory test, the same rats were placed in the same arena as they were placed in T1 trial. Choice phase (T2) rats were allowed to explore the open field for 3 minutes in presence of one familiar object (a3) and one novel object (b) (Amber color glass bottle, 12 cm high and 5 cm in diameter). Familiar objects presented similar textures, colors and sizes. During the T1 and T2 trial, explorations of each object (defined as sniffing, licking, chewing or having moving vibrissae whilst directing the nose towards the object at a distance of less than 1 cm) were recorded separately by stopwatch. Sitting on an object was not regarded as exploratory activity, however, it was rarely observed.
# T1 is the total time spent exploring the familiar objects (a1+a2).
# T2 is the total time spent exploring the familiar object and novel object (a3+b).
# The object recognition test was performed as described by Behaviour Brain Research, 31 (1988), 47-59.
# [2] = Rodent pharmacokinetic study; format: in vivo, Male wistar rats; conditions: male, Wistar, plasma, rat; for bioavailability: 3 mg/kg oral vs 1 mg/kg intravenous
# Procedure: Male wistar rats (225=25 grams) were used as experimental animals. Three to five animals were housed in each cage. Two days prior to dosing day, male wistar rats (225-250 grams) were anesthetized with isoflurane for surgical placement of jugular vein catheter. Animals were fasted over night before oral dosing (p.o) and food pellets were allowed 2 hours post dosing, whereas during intravenous dosing food and water were provided as ad libitum. Three rats were dosed with compounds of formula (I) (3 mg/kg) orally and intravenously (1 mg/kg).
# At each time point blood was collected through jugular vein and immediately replenish with an equivalent volume of normal saline from freely moving rats. Collected blood was transferred into a labeled eppendr off containing 10 μL of heparin as anticoagulant. Typically blood samples were collected as following time points: Pre dose, 0.08 (only i.v.), 0.25, 0.5, 1, 2, 4, 6, 8, and 24 hours post
# dose (n=3). Blood was centrifuged at 4000 rpm for 10 minutes. Plasma was prepared and stored frozen at −20° C. until analysis. The concentrations of the compounds of formula (I) were quantified in plasma by qualified LC-MS/MS method using suitable extraction technique. The compounds of formula (I) were quantified in the calibration range around 2-2000 ng/mL in plasma. Study samples were analyzed using calibration samples in the batch and quality control samples spread across the batch.
# Pharmacokinetic parameters Cmax, Tmax, AUCt, T1/2 and Bioavailability were calculated by non-compartmental model using standard non-compartmental model by using WinNonLin 5.0.1 or Phoenix WinNonlin 6.2 version Software package.
# [3] = Rodent brain penetration study; format: in vivo, Male Wistar rats; conditions: male, Wistar, brain and plasma; rat, 3 mg/kg oral (gavage); read-out: Single dose Brain Penetration (Cb/Cp)
# Procedure: Male Wistar rats (225±25 grams) were used as experimental animals. Three animals were housed in each cage. Animals were given water and food ad libitum throughout the experiment and maintained on a 12 hours light/dark cycle.
# Brain penetration was determined in discrete manner in rats. One day prior to dosing day, male wistar rats (225-250 grams) were acclimatized. After acclimatization the rats were grouped according to their weight. In each group, 3 animals were kept in individual cage and allowed free access to food and water. At each time point (0.50, 1, and 2 hours) n=3 animals were used.
# The compounds of formula (I) were suitably preformulated and administered orally at (free base equivalent) 3 mg/kg. Blood samples were removed via, cardiac puncture by using isoflurane anesthesia. The animals were sacrificed to collect brain tissue. Plasma was separated and brain samples were homogenized and stored frozen at −20° C. until analysis. The concentrations of the compounds of formula (I) in plasma and brain were determined using LC-MS/MS method.
# The compounds of formula (I) were quantified in plasma and brain homogenate by qualified LC-MS/MS method using suitable extraction technique. The compounds of formula (I) were quantified in the calibration range of 1-500 ng/mL in plasma and brain homogenate. Study samples were analyzed using calibration samples in the batch and quality control samples spread across the batch. Extent of brain-plasma ratio was calculated (Cb/Cp).
# [4] = test system: Scopolamine Induced amnesia; test: Radial arm maze; format: in vivo, rats; conditions: p.o.
# Description: The cognition enhancing properties of compounds of formula (I) of this invention were estimated by using this model. Radial arm maze consists of a central hub of 45 cm diameter. Each arm was of dimension 42.5×15×24 cm. The maze was elevated to a height of 1 m above the ground. The animals were placed on a restricted diet until they reached approximately 85% of their free feeding weight. During this diet restriction period animals were habituated to the novel feed (pellets). Once the rats reached approximately 85% of their free feeding weight rats were habituated to the maze on the 1^St and 2nd day. […] Animals were randomized on day 2. On the subsequent days the treatment was given as per the allotment. Each animal was introduced into the maze individually for a period of 10 minutes. The arms were baited only once and the animal had to learn the rule that repeated arm entries would not be rewarded. The trial ended once the rat had visited 16 arms or 10 minutes were over or all the pellets were eaten. The arm entries were recorded using the software. Once the trial was over the rat was removed and the maze was cleaned using soap water.
# sAPPα = test: Estimation of mice brain cortical sAPPα levels (ELISA); format: in vivo; conditions: 0.1 and 10 mg/kg s.c., single injection, 60 minutes
# Procedure: 1. […] 2. […] 3. […] 4. […] 5. […] Statistical analyses were performed using the Graph Pad Prism (Version 4). […] Values were compared between the different groups by using unpaired t test.
# T1 sequence (Q13639 whole entry): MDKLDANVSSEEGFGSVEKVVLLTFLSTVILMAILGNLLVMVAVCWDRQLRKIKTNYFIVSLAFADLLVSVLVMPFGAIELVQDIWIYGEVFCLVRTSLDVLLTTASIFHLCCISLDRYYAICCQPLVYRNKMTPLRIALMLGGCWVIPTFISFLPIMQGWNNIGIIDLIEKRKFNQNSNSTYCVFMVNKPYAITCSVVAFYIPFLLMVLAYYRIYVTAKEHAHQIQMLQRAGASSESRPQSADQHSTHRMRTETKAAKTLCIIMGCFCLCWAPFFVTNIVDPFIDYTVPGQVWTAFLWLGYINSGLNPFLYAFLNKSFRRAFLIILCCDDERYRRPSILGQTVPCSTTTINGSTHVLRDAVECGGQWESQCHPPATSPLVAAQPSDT
EC50 [1],AUC(0-t) ([2]; 1 mg/kg intravenous (bolus)),half-life ([2]; 1 mg/kg intravenous (bolus)),AUC(0-t) ([2]; 3 mg/kg oral (gavage)),Cmax ([2]; 3 mg/kg oral (gavage)),Tmax ([2]; 3 mg/kg oral (gavage)),half-life ([2]; 3 mg/kg oral (gavage)),bioavailability [2],Kp [3],SMILES,further results
≤ 1 nM,287 ± 40 ng·h/mL,66 ± 6 min,212 ± 46 ng·h/mL,107 ± 22 ng/mL,25.2 ± 8.4 min,90 min,25 ± 5%,0.98 ± 0.34,"CC(C)n1cc2cccc(C(=O)NCC3CCN(CC4CCOCC4)CC3)c2n1 [Example 1, N—[(N-tetrahydropyran-4-ylmethyl)piperidin-4-ylmethyl]-2-isopropyl-2H-indazole-7-carboxamide fumarate]","Exploration time mean ± S.E.M, Familiar object (Male Wistar rats; 1 mg/kg): 8.51 ± 1.35 s; Exploration time mean ± S.E.M, Novel object (Male Wistar rats; 1 mg/kg): 15.51 ± 1.37 s; Inference (Male Wistar rats; 1 mg/kg): Active"
≤ 1 nM,145 ± 18 ng·h/mL,102 ± 30 min,190 ± 43 ng·h/mL,223 ± 118 ng/mL,19.8 ± 8.4 min,66 ± 36 min,44 ± 10%,1 ± 0.15,"CCn1cc2cccc(C(=O)NCC3CCN(CC4CCOCC4)CC3)c2n1.O=C(O)/C=C/C(=O)O [Example 2, N—[(N-tetrahydropyran-4-ylmethyl)piperidin-4-ylmethyl]-2-ethyl-2H-indazole-7-carboxamide fumarate]","Exploration time mean ± S.E.M, Familiar object (Male Wistar rats; 0.3 mg/kg): 7.21 ± 1.99 s; Exploration time mean ± S.E.M, Novel object (Male Wistar rats; 0.3 mg/kg): 13.10 ± 1.78 s; Inference (Male Wistar rats; 0.3 mg/kg): Active; Reversal of Scopolamine Induced amnesia - Effective dose range [4]: 0.3 mg/kg, p.o."
1.1 to 5 nM,397 ± 28 ng·h/mL,54 ± 6 min,560 ± 117 ng·h/mL,467 ± 37 ng/mL,19.8 ± 8.4 min,48 ± 6 min,47 ± 10%,0.96 ± 0.12,"COCCCN1CC2C(CNC(=O)c3cccc4cn(C(C)C)nc34)C2C1.O=C(O)C(=O)O (centres unmarked) [Example 3, N—[N-(3-methoxypropyl)-3-azabicyclo[3.1.0]hexane-6-ylmethyl]-2-isopropyl-2H-indazole-7-carboxamide oxalate]","Exploration time mean ± S.E.M, Familiar object (Male Wistar rats; 1 mg/kg): 5.67 ± 1.15 s; Exploration time mean ± S.E.M, Novel object (Male Wistar rats; 1 mg/kg): 14.26 ± 1.64 s; Inference (Male Wistar rats; 1 mg/kg): Active; increase of mice brain cortical sAPPα levels in comparison with control group (sAPPα): 25-30%; Reversal of Scopolamine Induced amnesia - Effective dose range [4]: 3 mg/kg, p.o."
≤ 1 nM,281 ± 6 ng·h/mL,72 ± 6 min,155 ± 3 ng·h/mL,110 ± 8 ng/mL,30 min,48 min,18%,0.52 ± 0.08,"CC(C)n1cc2cccc(C(=O)NCC3CCN(CC(C)(C)O)CC3)c2n1.O=C(O)C(O)C(O)C(=O)O [Example 32, N—[N-(2-hydroxy-2-methylpropyl)piperidin-4-ylmethyl]-2-isopropyl-2H-indazole-7-carboxamide L(+) Tartarate]","Exploration time mean ± S.E.M, Familiar object (Male Wistar rats; 0.3 mg/kg): 7.79 ± 1.27 s; Exploration time mean ± S.E.M, Novel object (Male Wistar rats; 0.3 mg/kg): 17.98 ± 2.41 s; Inference (Male Wistar rats; 0.3 mg/kg): Active; Reversal of Scopolamine Induced amnesia - Effective dose range [4]: 0.3 mg/kg, p.o."
≤ 1 nM,–,–,–,–,–,–,–,–,"COC(C)(C)CN1CCC(CNC(=O)c2cccc3cn(C(C)C)nc23)CC1 [Example 33, N—[N-(2-Methoxy-2-methylpropyl)piperidin-4-ylmethyl]-2-isopropyl-2H-indazole-7-carboxamide]",–
≤ 1 nM,–,–,–,–,–,–,–,–,"CC(C)n1cc2cccc(C(=O)NCC3CCN(CC(C)(C)F)CC3)c2n1 [Example 34, N—[N-(2-fluoro-2-methylpropyl)piperidin-4-ylmethyl]-2-isopropyl-2H-indazole-7-carboxamide L(+) Tartarate]",–
5.1 to 20 nM,–,–,–,–,–,–,–,–,"CC(C)n1cc2cccc(C(=O)NCC3(F)CCN(CC(C)(C)O)CC3)c2n1 [Example 35, N—[N-(2-hydroxy-2-methylpropyl)-4-fluoropiperidin-4-ylmethyl]-2-isopropyl-2H-indazole-7-carboxamide L(+) Tartarate]",–
5.1 to 20 nM,–,–,–,–,–,–,–,–,"CC(C)n1cc2cccc(C(=O)NCC3C4CN(CC(C)(C)O)CC34)c2n1 (stereo not drawn) [Example 36, N—[N-(2-hydroxy-2-methylpropyl)-3-azabicyclo[3.1.0]hexane-6-ylmethyl]-2-isopropyl-2H-indazole-7-carboxamide L(+) Tartarate]",–
5.1 to 20 nM,–,–,–,–,–,–,–,–,"COCCCN1CCC(c2nnc(-c3cccc4cn(C(C)C)nc34)o2)CC1 [Example 37, 2-isopropyl-7-{5-[1-(3-methoxypropyl)piperidin-4-yl]-[1,3,4]oxadiazol-2-yl)}-2H-indazole fumarate]",–
5.1 to 20 nM,–,–,–,–,–,–,–,–,"CC(C)n1cc2cccc(-c3nnc(C4CCN(CC5CCOCC5)CC4)o3)c2n1 [Example 38, 2-Isopropyl-7-{5-[1-(tetrahydropyran-4-ylmethyl)piperidin-4-yl]-[1,3,4]oxadiazol-2-yl}-2H-indazole fumarate]",–
1.1 to 5 nM,–,–,–,–,–,–,–,–,"CC(C)n1cc2cccc(-c3nnc(C4CCN(C5CCOCC5)CC4)o3)c2n1 [Example 39, 2-Isopropyl-7-{5-[1-(tetrahydropyran-4-yl)piperidin-4-yl]-[1,3,4]oxadiazol-2-yl}-2H-indazole fumarate]",–

# — patent US9951045B2, “Indazole compounds as 5-HT4 receptor agonists” (SUVEN LIFE SCIENCES LIMITED, priority 2013, dated 2018)
